Our source for the EC50 values is US8148349B2, “Nucleoside cyclic phosphoramidates for the treatment of RNA-dependent RNA viral infection” (Istituto di Ricerche di Biologia Molecolare P. Angeletti …, priority 2006, dated 2012).

Bounds are passed on as bounds.

The first assay concerns subgenomic HCV Replicon in HuH-7 cells. The assay is described as follows: Assay for Inhibition of HCV RNA Replication (Replicon assay). Format: cell-based, Hepatitis C Virus. The settings on record: Hepatitis C virus, Huh-7, read-out: Replicon Assay EC50. Here is the method: A. Assay for Inhibition of HCV RNA Replication:
The compounds of the present invention are evaluated for their ability to affect the replication of Hepatitis C Virus RNA in cultured hepatoma (HuH-7) cells containing a subgenomic HCV Replicon. The details of the assay are described below. This Replicon assay is a modification of that described in V. Lohmann, F. Korner, J-O. Koch, U. Herian, L. Theilmann, and R. Bartenschlager, “Replication of a Sub-genomic Hepatitis C Virus RNAs in a Hepatoma Cell Line,” Science 285:110 (1999).
The assay is an in situ Ribonuclease protection, Scintillation Proximity based-plate assay (SPA). 10,000-40,000 cells are plated in 100-200 μL of media containing 0.8 mg/mL G418 in 96-well cytostar plates (Amersham). Compounds are added to cells at various concentrations up to 100 μM in 1% DMSO at time 0 to 18 h and then cultured for 24-96 h. Cells are fixed (20 min, 10% formalin), permeabilized (20 min, 0.25% Triton X-100/PBS) and hybridized (overnight, 50° C.) with a single-stranded ^33P RNA probe complementary to the (+) strand NS5B (or other genes) contained in the RNA viral genome. Cells are washed, treated with RNAse, washed, heated to 65° C. and counted in a Top-Count. Inhibition of replication is read as a decrease in counts per minute (cpm).
Human HuH-7 hepatoma cells, which are selected to contain a subgenomic replicon, carry a cytoplasmic RNA consisting of an HCV 5′ non-translated region (NTR), a neomycin selectable marker, an EMCV IRES (internal ribosome entry site), and HCV non-structural proteins NS3 through NS5B, followed by the 3′ NTR.
Turning to `CCCCOC(=O)[C@H](C)NP1(=O)OC[C@H]2O[C@@H](n3ccc(N)nc3=O)[C@](C)(O)[C@@H]2O1` (single isomer, unassigned) [Example 1], the 50% effective concentration (EC50) is 15 µM.
With `CCC[C@H](NP1(=O)OC[C@H]2O[C@@H](n3ccc(N)nc3=O)[C@](C)(O)[C@@H]2O1)C(=O)OCC` (stereo partly drawn) [Example 8, ethyl N-[(4aR,6R,7R,7aR)-6-(4-amino-2-oxopyrimidin-1(2H)-yl)-7-hydroxy-7-methyl-2-oxidotetrahydro-4H-furo[3,2-d][1,3,2]dioxaphosphinin-2-yl]-L-norvalinate], the EC50 was more than 20 µM.
As for `CCOC(=O)[C@H](C)NP1(=O)OC[C@H]2O[C@@H](n3ccc(N)nc3=O)[C@](C)(O)[C@@H]2O1` (single isomer, unassigned) [Example 2], the 50% effective concentration (EC50) is 4 µM.
On the same count and under the same terms, the figure for `CCOC(=O)[C@H](C)NP1(=O)OC[C@H]2O[C@@H](n3ccc(N)nc3=O)[C@](C)(O)[C@@H]2O1` (stereo partly drawn) [Example 10, ethyl N-[(4aR,6R,7R,7aR)-6-(4-amino-2-oxopyrimidin-1(2H)-yl)-7-hydroxy-7-methyl-2oxidotetrahydro-4H-furo[3,2-d][1,3,2]-dioxaphosphinin-2-yl]-L-alaninate] is 4 µM; for `CCOC(=O)[C@H](CC)NP1(=O)OC[C@H]2O[C@@H](n3ccc(N)nc3=O)[C@](C)(O)[C@@H]2O1` (stereo partly drawn) [Example 6, ethyl (2S)-2-{[(4aR,6R,7R,7aR)-6-(4-amino-2-oxopyrimidin-1(2H)-yl)-7-hydroxy-7-methyl-2-oxidotetrahydro-4H-furo[3,2d][1,3,2]dioxaphosphinin-2-yl]amino}butanoate] it is 6 µM; for `C[C@H](NP1(=O)OC[C@H]2O[C@@H](n3ccc(N)nc3=O)[C@](C)(O)[C@@H]2O1)C(=O)OC(C)(C)C` (stereo partly drawn) [Example 4, tert-butyl N-[(4aR,6R,7R,7aR)-6-(4-amino-2-oxopyrimidin-1(2H)-yl)-7-hydroxy-7-methyl-2-oxidotetrahydro-4H-furo[3,2d][1,3,2]dioxaphosphinin-2-yl]-L-alaninate] it is more than 20 µM.
The same measure, in the same setting: as for `CCCCOC(=O)[C@H](C)NP1(=O)OC[C@H]2O[C@@H](n3ccc(N)nc3=O)[C@](C)(O)[C@@H]2O1` (stereo partly drawn) [Example 5, n-butyl N-[(4aR,6R,7R,7aR)-6-(4-amino-2-oxopyrimidin-1(2H)-yl)-7-hydroxy-7-methyl-2-oxidotetrahydro-4H-furo[3,2d][1,3,2]dioxaphosphinin-2-yl]-L-alaninate], the figure is 15 µM.

The same assay, now with this note: Hepatitis C virus; HuH-7 cells containing a subgenomic HCV Replicon; read-out: Replicon Assay EC50.
On to `CCCCCCCOC(=O)[C@H](C)NP1(=O)OC[C@H]2O[C@@H](n3ccc(NC(=O)OCCCN(C)C)nc3=O)[C@](C)(O)[C@@H]2O1` (stereo partly drawn) [Example 23, n-heptyl N-{(4aR,6R,7R,7aR)-6-[4-({[3-(dimethylamino)propoxy]carbonyl}amino)-2-oxopyrimidin-1(2H)-yl]-7-hydroxy-7-methyl-2-oxidotetrahydro-4H-furo[3,2-d][1,3,2]dioxaphosphinin-2-yl}-L-alaninate], for which the 50% effective concentration (EC50) was more than 20 µM.
With `C[C@H](NP1(=O)OC[C@H]2O[C@@H](n3ccc(N)nc3=O)[C@](C)(O)[C@@H]2O1)C(=O)OC1CCCC1` (stereo partly drawn) [Example 9, cyclopentyl N-[(4aR,6R,7R,7aR)-6-(4-amino-2-oxopyrimidin-1(2H)-yl)-7-hydroxy-7-methyl-2-oxidotetrahydro-4H-furo[3,2d][1,3,2]-dioxaphosphinin-2-yl]-L-alaninate], the concentration for a half-maximal effect (EC50) was more than 20 µM.
Consider `CCCC(CCC)COC(=O)[C@H](C)NP1(=O)OC[C@H]2O[C@@H](n3ccc(N)nc3=O)[C@](C)(O)[C@@H]2O1` (stereo partly drawn) [Example 16, 2-propylpentyl N-[(4aR,6R,7R,7aR)-6-(4-amino-2-oxopyrimidin-1(2H)-yl)-7-hydroxy-7-methyl-2-oxidotetrahydro-4H-furo[3,2-d][1,3,2]dioxaphosphinin-2-yl]-L-alaninate], for which the EC50 is 14 µM.
Consider `CCCC(CCC)C(=O)Nc1ccn([C@@H]2O[C@@H]3COP(=O)(N[C@@H](CC)C(=O)OCC)O[C@H]3[C@@]2(C)O)c(=O)n1` (stereo partly drawn) [Example 20, Ethyl (2S)-2-({(4aR,6R,7R,7aR)-7-hydroxy-7-methyl-2-oxido-6-[2-oxo-4-[(2-propylpentanoyl)amino]pyrimidin-1(2H)-yl]tetrahydro-4H-furo[3,2-d][1,3,2]dioxaphosphinin-2-yl}amino)butanoate], for which the half-maximal effective concentration (EC50) was more than 20 µM.
Still for that read-out and setting: the figure for `CCCCCCCOC(=O)[C@H](C)NP1(=O)OC[C@H]2O[C@@H](n3ccc(N)nc3=O)[C@](C)(O)[C@@H]2O1` (single isomer, unassigned) [Example 3] is 5 µM; for `CCCC(CCC)C(=O)Nc1ccn([C@@H]2O[C@@H]3COP(=O)(N[C@@H](C)C(=O)OCC)O[C@H]3[C@@]2(C)O)c(=O)n1` (stereo partly drawn) [Example 21, ethyl N-{(4aR,6R,7R,7aR)-7-hydroxy-7-methyl-2-oxido-6-[2-oxo-4-[(2-propylpentanoyl)amino]pyrimidin-1(2H)-yl]tetrahydro-4H-furo[3,2-d][1,3,2]dioxaphosphinin-2-yl}-L-alaninate] it is more than 20 µM.
As to `CCCCCCCOC(=O)[C@H](C)NP1(=O)OC[C@H]2O[C@@H](n3ccc(N)nc3=O)[C@](C)(O)[C@@H]2O1` (stereo partly drawn) [Example 11, n-heptyl N-[(4aR,6R,7R,7aR)-6-(4-amino-2-oxopyrimidin-1(2H)-yl)-7-hydroxy-7-methyl-2oxidotetrahydro-4Hfuro[3,2d][1,3,2]-dioxaphosphinin-2-yl]-L-alaninate], the EC50 is 10 µM.
On to `C[C@H](NP1(=O)OC[C@H]2O[C@@H](n3ccc(N)nc3=O)[C@](C)(O)[C@@H]2O1)C(=O)OCCCC1CCCCC1` (stereo partly drawn) [Example 19, 3-cyclohexylpropyl N-[(4aR,6R,7R,7aR)-6-(4-amino-2-oxopyrimidin-1(2H)-yl)-7-hydroxy-7-methyl-2-oxidotetrahydro-4H-furo[3,2-d][1,3,2]dioxaphosphinin-2-yl]-L-alaninate], for which the EC50 is 10 µM.
On the same count and under the same terms, as for `CCCCCCOCCOC(=O)[C@H](C)NP1(=O)OC[C@H]2O[C@@H](n3ccc(N)nc3=O)[C@](C)(O)[C@@H]2O1` (stereo partly drawn) [Example 17, 2-(hexyloxy)ethyl N-[(4aR,6R,7R,7aR)-6-(4-amino-2-oxopyrimidin-1(2H)-yl)-7-hydroxy-7-methyl-2-oxidotetrahydro-4H-furo[3,2-d][1,3,2]dioxaphosphinin-2-yl]-L-alaninate], the figure is 15 µM.
Same read-out and setting: as for `CC(C)CCOC(=O)[C@H](C)NP1(=O)OC[C@H]2O[C@@H](n3ccc(N)nc3=O)[C@](C)(O)[C@@H]2O1` (stereo partly drawn) [Example 13, isopentyl N-[(4aR,6R,7R,7aR)-6-(4-amino-2-oxopyrimidin-1(2H)-yl)-7-hydroxy-7-methyl-2-oxidotetrahydro-4H-furo[3,2d][1,3,2]-dioxaphosphinin-2-yl]-L-alaninate], the figure is more than 20 µM; as for `CCC(CC)COC(=O)[C@H](C)NP1(=O)OC[C@H]2O[C@@H](n3ccc(N)nc3=O)[C@](C)(O)[C@@H]2O1` (stereo partly drawn) [Example 15, 2-ethylbutyl N-[(4aR,6R,7R,7aR)-6-(4-amino-2-oxopyrimidin-1(2H)-yl)-7-hydroxy-7-methyl-2-oxidotetrahydro-4H-furo[3,2-d][1,3,2]dioxaphosphinin-2-yl]-L-alaninate], more than 20 µM.
As to `C[C@H](NP1(=O)OC[C@H]2O[C@@H](n3ccc(N)nc3=O)[C@](C)(O)[C@@H]2O1)C(=O)OC1CCCCC1` (stereo partly drawn) [Example 12, cyclohexyl N-[(4aR,6R,7R,7aR)-6-(4-amino-2-oxopyrimidin-1(2H)-yl)-7-hydroxy-7-methyl-2oxidotetrahydro-4Hfuro[3,2d][1,3,2]dioxaphosphinin-2-yl]-L-alaninate], the EC50 is more than 20 µM.
In the case of `CCOC(=O)[C@H](CC(C)C)NP1(=O)OC[C@H]2O[C@@H](n3ccc(N)nc3=O)[C@](C)(O)[C@@H]2O1` (stereo partly drawn) [Example 7, ethyl N-[(4aR,6R,7R,7aR)-6-(4-amino-2-oxopyrimidin-1(2H)-yl)-7-hydroxy-7-methyl-2-oxidotetrahydro-4H-furo[3,2-d][1,3,2]dioxaphosphinin-2-yl]-L-leucinate], the 50% effective concentration (EC50) turned out to be 50 µM.
With `C[C@H](NP1(=O)OC[C@H]2O[C@@H](n3ccc(N)nc3=O)[C@](C)(O)[C@@H]2O1)C(=O)OC1CCCCCC1` (stereo partly drawn) [Example 18, cycloheptyl N-[(4aR,6R,7R,7aR)-6-(4-amino-2-oxopyrimidin-1(2H)-yl)-7-hydroxy-7-methyl-2-oxidotetrahydro-4H-furo[3,2-d][1,3,2]dioxaphosphinin-2-yl]-L-alaninate], the EC50 was more than 10 µM.

Staying with this assay, now noted: HuH-7 cells containing a subgenomic HCV Replicon; read-out: Replicon Assay EC50.
On to `COCCCOC(=O)[C@H](C)NP1(=O)OC[C@H]2O[C@@H](n3ccc(N)nc3=O)[C@](C)(O)[C@@H]2O1` (stereo partly drawn) [Example 14, 3-methoxypropyl N[(4aR,6R,7R,7aR)-6-(4-amino-2-oxopyrimidin-1(2H)-yl)-7-hydroxy-7-methyl-2-oxidotetrahydro-4H-furo[3,2-d][1,3,2]dioxaphosphinin-2-yl]-L-alaninate], for which the EC50 amounted to 28 µM.
As to “n-heptyl N-{(4aR,6R,7R,7aR)-7-hydroxy-7-methyl-6-[4-[(1-methylene-2-propylpentyl)amino]-2-oxopyrimidin-1(2H)-yl]-2-oxidotetrahydro-4H-furo[3,2-d][1,3,2]dioxaphosphinin-2-yl}-L-alaninate [Example 22]”, the EC50 turned out to be 12 µM.
